CC1(C)[C@@H](O)CC[C@]2(C)[C@H]3C(=O)C=C4[C@@H]5C[C@@](C)(C(=O)O)CC[C@]5(C)CC[C@@]4(C)[C@]3(C)CC[C@@H]12
Details | solubility (mole fraction)
in 1,4-dioxane, 288.15 K | 0.0269
in 1,4-dioxane, 293.15 K | 0.028
in 1,4-dioxane, 298.15 K | 0.0297
in 1,4-dioxane, 303.15 K | 0.0315
in 1,4-dioxane, 308.15 K | 0.0327
in 1,4-dioxane, 313.15 K | 0.0337
in 1,4-dioxane, 318.15 K | 0.0349
in 1,4-dioxane, 323.15 K | 0.036
in DMF, 278.15 K | 0.0467
in DMF, 283.15 K | 0.0474
in DMF, 288.15 K | 0.0515
in DMF, 293.15 K | 0.0552
in DMF, 298.15 K | 0.0576
in DMF, 303.15 K | 0.0598
in DMF, 308.15 K | 0.0643
in DMF, 313.15 K | 0.0678
in DMF, 318.15 K | 0.0716
in DMF, 323.15 K | 0.0763
in THF, 278.15 K | 0.0764
in THF, 283.15 K | 0.077
in THF, 288.15 K | 0.0774
in THF, 293.15 K | 0.078
in THF, 298.15 K | 0.0787
in THF, 303.15 K | 0.0794
in THF, 308.15 K | 0.0804
in THF, 313.15 K | 0.0815
in THF, 318.15 K | 0.0827
in THF, 323.15 K | 0.0842
in acetone, 278.15 K | 0.00321
in acetone, 283.15 K | 0.00347
in acetone, 288.65 K | 0.00365
in acetone, 293.15 K | 0.0038
in acetone, 298.15 K | 0.00414
in acetone, 303.15 K | 0.00438
in acetone, 308.15 K | 0.00468
in acetone, 313.15 K | 0.00495
in acetone, 318.15 K | 0.00543
in acetone, 323.15 K | 0.00598
in ethanol, 278.15 K | 0.0106
in ethanol, 283.15 K | 0.0112
in ethanol, 288.65 K | 0.0125
in ethanol, 293.15 K | 0.0132
in ethanol, 298.15 K | 0.0138
in ethanol, 303.15 K | 0.0143
in ethanol, 308.15 K | 0.0148
in ethanol, 313.15 K | 0.0152
in ethanol, 318.15 K | 0.0158
in ethanol, 323.15 K | 0.0168
in isobutyl acetate, 278.15 K | 0.00229
in isobutyl acetate, 283.15 K | 0.00232
in isobutyl acetate, 288.15 K | 0.00239
in isobutyl acetate, 293.15 K | 0.00242
in isobutyl acetate, 298.15 K | 0.00247
in isobutyl acetate, 303.15 K | 0.00256
in isobutyl acetate, 308.15 K | 0.00273
in isobutyl acetate, 313.15 K | 0.00278
in isobutyl acetate, 318.15 K | 0.00288
in isobutyl acetate, 323.15 K | 0.00314
in isopropanol, 278.15 K | 0.00857
in isopropanol, 283.15 K | 0.00946
in isopropanol, 288.65 K | 0.0114
in isopropanol, 293.15 K | 0.012
in isopropanol, 298.15 K | 0.0129
in isopropanol, 303.15 K | 0.0139
in isopropanol, 308.15 K | 0.0149
in isopropanol, 313.15 K | 0.0156
in isopropanol, 318.15 K | 0.0164
in isopropanol, 323.15 K | 0.0174
in methanol, 278.15 K | 0.00229
in methanol, 283.15 K | 0.00257
in methanol, 288.65 K | 0.00295
in methanol, 293.15 K | 0.00329
in methanol, 298.15 K | 0.00373
in methanol, 303.15 K | 0.00427
in methanol, 308.15 K | 0.00486
in methanol, 313.15 K | 0.00562
in methanol, 318.15 K | 0.00675
in methanol, 323.15 K | 0.00755
in methyl acetate, 278.15 K | 0.00182
in methyl acetate, 283.15 K | 0.00196
in methyl acetate, 288.15 K | 0.00203
in methyl acetate, 293.15 K | 0.00227
in methyl acetate, 298.15 K | 0.00244
in methyl acetate, 303.15 K | 0.00259
in methyl acetate, 308.15 K | 0.0027
in methyl acetate, 313.15 K | 0.00293
in methyl acetate, 318.15 K | 0.00319
in methyl acetate, 323.15 K | 0.0034
in n-butyl acetate, 278.15 K | 0.00286
in n-butyl acetate, 283.15 K | 0.00297
in n-butyl acetate, 288.15 K | 0.00315
in n-butyl acetate, 293.15 K | 0.00327
in n-butyl acetate, 298.15 K | 0.00333
in n-butyl acetate, 303.15 K | 0.00344
in n-butyl acetate, 308.15 K | 0.0035
in n-butyl acetate, 313.15 K | 0.00354
in n-butyl acetate, 318.15 K | 0.00359
in n-butyl acetate, 323.15 K | 0.00364
in n-propanol, 278.15 K | 0.0131
in n-propanol, 283.15 K | 0.0146
in n-propanol, 288.65 K | 0.016
in n-propanol, 293.15 K | 0.0174
in n-propanol, 298.15 K | 0.0186
in n-propanol, 303.15 K | 0.0194
in n-propanol, 308.15 K | 0.0206
in n-propanol, 313.15 K | 0.0218
in n-propanol, 318.15 K | 0.0223
in n-propanol, 323.15 K | 0.023
in n-propyl acetate, 278.15 K | 0.00157
in n-propyl acetate, 283.15 K | 0.00176
in n-propyl acetate, 288.15 K | 0.00193
in n-propyl acetate, 293.15 K | 0.00211
in n-propyl acetate, 298.15 K | 0.00232
in n-propyl acetate, 303.15 K | 0.00245
in n-propyl acetate, 308.15 K | 0.00261
in n-propyl acetate, 313.15 K | 0.00273
in n-propyl acetate, 318.15 K | 0.00284
in n-propyl acetate, 323.15 K | 0.00295

From BigSolDB 2.1
